Results taken from ChEMBL document CHEMBL1208667, “Permanent positive charge strongly influences DNA/RNA binding and antiproliferative activity of urea-phenanthridinium conjugates” (Eur J Med Chem, 2010).
Active and inactive are the calls of the source. The calls are words filed in the database; no cut-off is given here.

Tests used:
Calf thymus DNA [1] = experiment: Binding affinity to calf thymus DNA assessed as change in melting temperature at compound to DNA molar ratio of 0.2 at pH 7 by thermal denaturation assay; format: nucleic-acid assay; conditions: Bos taurus
Calf thymus DNA [2] = experiment: Binding affinity to calf thymus DNA assessed as change in melting temperature at compound to DNA molar ratio of 0.3 at pH 7 by thermal denaturation assay; format: nucleic-acid assay; conditions: Bos taurus
Nucleic Acid [3] = experiment: Binding affinity to […] assessed as melting temperature at compound to DNA molar ratio of 0.2 at pH 7 by thermal denaturation assay; format: nucleic-acid assay
Calf thymus DNA [4] = experiment: Binding affinity to calf thymus DNA assessed as change in melting temperature at compound to DNA molar ratio of 0.2 at pH 5 by thermal denaturation assay; format: nucleic-acid assay; conditions: Bos taurus
Nucleic Acid [5] = experiment: Binding affinity to […] assessed as melting temperature at compound to DNA molar ratio of 0.2 at pH 5 by thermal denaturation assay; format: nucleic-acid assay
Nucleic Acid [6] = experiment: Binding affinity to poly dA-poly dT RNA in citric acid buffer at pH 5 by fluorescence titration assay relative to control; format: nucleic-acid assay
Nucleic Acid [7] = experiment: Binding affinity to poly A-poly U RNA assessed as change in melting temperature at compound to DNA molar ratio of 0.2 at pH 7 by thermal denaturation assay; format: nucleic-acid assay
Caco-2 [8] = experiment: Cytotoxicity against human Caco-2 cells at 0.1 to 100 uM after 72 hrs by MTT assay; format: functional, cell-based
Nucleic Acid [9] = experiment: Binding affinity to CMP in citric acid buffer at pH 5 by fluorescence titration assay relative to control; format: nucleic-acid assay
MIA PaCa-2 [10] = experiment: Cytotoxicity against human MIAPaCa2 cells at 100 uM after 72 hrs by MTT assay; format: functional; conditions: MIA PaCa-2, 72 h
Calf thymus DNA [11] = experiment: Binding affinity to calf thymus DNA in sodium cacodylate buffer at pH 7 by fluorescence titration assay; format: nucleic-acid assay; conditions: Bos taurus
Calf thymus DNA [12] = experiment: Binding affinity to calf thymus DNA at compound to DNA molar ratio of 0.1 to 0.5 at pH 5 by circular dichroism; format: nucleic-acid assay; conditions: Bos taurus
MIA PaCa-2 [13] = experiment: Cytotoxicity against human MIAPaCa2 cells at 0.1 to 100 uM after 72 hrs by MTT assay; format: functional, cell-based
Nucleic Acid [14] = experiment: Binding affinity to […] assessed as melting temperature at compound to DNA molar ratio of 0.3 at pH 7 by thermal denaturation assay; format: nucleic-acid assay
Nucleic Acid [15] = experiment: Binding affinity to […] assessed as melting temperature at compound to DNA molar ratio of 0.3 at pH 5 by thermal denaturation assay; format: nucleic-acid assay
Nucleic Acid [16] = experiment: Binding affinity to poly G-poly C RNA in sodium cacodylate buffer at pH 7 by fluorescence titration assay relative to control; format: nucleic-acid assay
Calf thymus DNA [17] = experiment: Binding affinity to calf thymus DNA in citric acid buffer at pH 5 by fluorescence titration assay; format: nucleic-acid assay; conditions: Bos taurus
Calf thymus DNA [18] = experiment: Binding affinity to calf thymus DNA assessed as melting temperature at compound to DNA molar ratio of 0.3 at pH 7 by thermal denaturation assay; format: nucleic-acid assay; conditions: Bos taurus
Nucleic Acid [19] = experiment: Binding affinity to poly A-poly U RNA assessed as melting temperature at compound to DNA molar ratio of 0.3 at pH 7 by thermal denaturation assay; format: nucleic-acid assay
Nucleic Acid [20] = experiment: Binding affinity to […] assessed as change in melting temperature at compound to DNA molar ratio of 0.2 at pH 7 by thermal denaturation assay; format: nucleic-acid assay
Calf thymus DNA [21] = experiment: Binding affinity to calf thymus DNA assessed as change in melting temperature at compound to DNA molar ratio of 0.3 at pH 5 by thermal denaturation assay; format: nucleic-acid assay; conditions: Bos taurus
Nucleic Acid [22] = experiment: Binding affinity to AMP in sodium cacodylate buffer at pH 7 by fluorescence titration assay relative to control; format: nucleic-acid assay
Nucleic Acid [23] = experiment: Binding affinity to GMP in citric acid buffer at pH 5 by fluorescence titration assay relative to control; format: nucleic-acid assay
Calf thymus DNA [24] = experiment: Binding affinity to calf thymus DNA assessed as melting temperature at compound to DNA molar ratio of 0.2 at pH 7 by thermal denaturation assay; format: nucleic-acid assay; conditions: Bos taurus
Nucleic Acid [25] = experiment: Binding affinity to poly dA-poly dT RNA in citric acid buffer at pH 5 by fluorescence titration assay; format: nucleic-acid assay
Nucleic Acid [26] = experiment: Binding affinity to poly A-poly U RNA assessed as biphasic transitions of melting temperature at compound to DNA molar ratio of 0.2 at pH 5 by thermal denaturation assay; format: nucleic-acid assay
MIA PaCa-2 [27] = experiment: Cytotoxicity against human MIAPaCa2 cells after 72 hrs by MTT assay; format: functional, cell-based
Nucleic Acid [28] = experiment: Binding affinity to poly G-poly C RNA in citric acid buffer at pH 5 by fluorescence titration assay relative to control; format: nucleic-acid assay
Calf thymus DNA [29] = experiment: Binding affinity to calf thymus DNA in sodium cacodylate buffer at pH 7 by fluorescence titration assay relative to control; format: nucleic-acid assay; conditions: Bos taurus
Caco-2 [30] = experiment: Cytotoxicity against human Caco-2 cells at 100 uM after 72 hrs by MTT assay; format: functional, cell-based
Nucleic Acid [31] = experiment: Binding affinity to poly A-poly U RNA in sodium cacodylate buffer at pH 7 by fluorescence titration assay relative to control; format: nucleic-acid assay
Calf thymus DNA [32] = experiment: Binding affinity to calf thymus DNA assessed as melting temperature at compound to DNA molar ratio of 0.2 at pH 5 by thermal denaturation assay; format: nucleic-acid assay; conditions: Bos taurus
Nucleic Acid [33] = experiment: Binding affinity to poly A-poly U RNA assessed as melting temperature at compound to DNA molar ratio of 0.2 at pH 7 by thermal denaturation assay; format: nucleic-acid assay
HEp-2 = experiment: Cytotoxicity against human Hep2 cells at 0.1 to 100 uM after 72 hrs by MTT assay; format: functional, cell-based
Nucleic Acid [34] = experiment: Binding affinity to poly A-poly U RNA assessed as melting temperature at compound to DNA molar ratio of 0.2 at pH 5 by thermal denaturation assay; format: nucleic-acid assay
Nucleic Acid [35] = experiment: Binding affinity to GMP in sodium cacodylate buffer at pH 7 by fluorescence titration assay relative to control; format: nucleic-acid assay
Nucleic Acid [36] = experiment: Binding affinity to AMP in citric acid buffer at pH 5 by fluorescence titration assay relative to control; format: nucleic-acid assay
Nucleic Acid [37] = experiment: Binding affinity to poly A-poly U RNA at compound to DNA molar ratio of 0.1 to 0.5 at pH 5 by circular dichroism; format: nucleic-acid assay
Nucleic Acid [38] = experiment: Binding affinity to poly A-poly U RNA in citric acid buffer at pH 5 by fluorescence titration assay relative to control; format: nucleic-acid assay
Nucleic Acid [39] = experiment: Binding affinity to poly dA-poly dT RNA in sodium cacodylate buffer at pH 7 by fluorescence titration assay; format: nucleic-acid assay
Nucleic Acid [40] = experiment: Binding affinity to poly dA-poly dT RNA in sodium cacodylate buffer at pH 7 by fluorescence titration assay relative to control; format: nucleic-acid assay
Nucleic Acid [41] = experiment: Binding affinity to […] assessed as change in melting temperature at compound to DNA molar ratio of 0.3 at pH 5 by thermal denaturation assay; format: nucleic-acid assay
Nucleic Acid [42] = experiment: Binding affinity to poly G-poly C RNA in citric acid buffer at pH 5 by fluorescence titration assay; format: nucleic-acid assay
Nucleic Acid [43] = experiment: Binding affinity to CMP in sodium cacodylate buffer at pH 7 by fluorescence titration assay relative to control; format: nucleic-acid assay
Nucleic Acid [44] = experiment: Binding affinity to poly dA-poly dT RNA in sodium cacodylate buffer at pH 7 by UV-v titration assay; format: nucleic-acid assay

- ΔTm (Calf thymus DNA [1]): 2.4 °C
- ΔTm (Calf thymus DNA [2]): 3.8 °C
- Tm (Nucleic Acid [3]): 70.2 °C
- ΔTm (Calf thymus DNA [4]): 12.1 °C
- Tm (Nucleic Acid [5]): 59.4 °C
- RFU (Nucleic Acid [6]): 56
- ΔTm (Nucleic Acid [7]): 0 °C
- RFU (Nucleic Acid [9]): 0.3
- log Ks (Calf thymus DNA [11]): 6.1
- Activity (Calf thymus DNA [12]): Active
- Tm (Nucleic Acid [14]): 71 °C
- Tm (Nucleic Acid [15]): 60.7 °C
- RFU (Nucleic Acid [16]): 0.7
- log Ks (Calf thymus DNA [17]): 6.4
- Tm (Calf thymus DNA [18]): 83.1 °C
- Tm (Nucleic Acid [19]): 51.6 °C
- ΔTm (Nucleic Acid [20]): 5.3 °C
- ΔTm (Calf thymus DNA [21]): 15 °C
- RFU (Nucleic Acid [22]): -45.2
- RFU (Nucleic Acid [23]): 23.5
- Tm (Calf thymus DNA [24]): 81.7 °C
- log Ks (Nucleic Acid [25]): 6.1
- Tm (Nucleic Acid [26]): 30.7 °C
- RFU (Nucleic Acid [28]): 0
- RFU (Calf thymus DNA [29]): 3
- RFU (Nucleic Acid [31]): 9.2
- Tm (Calf thymus DNA [32]): 72.7 °C
- Tm (Nucleic Acid [33]): 51.5 °C
- Tm (Nucleic Acid [34]): 84.1 °C
- RFU (Nucleic Acid [35]): 34.2
- RFU (Nucleic Acid [36]): -6.9
- Activity (Nucleic Acid [37]): Active
- RFU (Nucleic Acid [38]): 2.3
- log Ks (Nucleic Acid [39]): 5.3
- RFU (Nucleic Acid [40]): 15
- ΔTm (Nucleic Acid [41]): 10.7 °C
- log Ks (Nucleic Acid [42]): 5.5
- RFU (Nucleic Acid [43]): 47.7
- log Ks (Nucleic Acid [44]): 5
SMILES: Cc1c2cc(NC(=O)NCCNC(=O)Nc3ccc4c(c3)c(C)[n+](C)c3ccccc43)ccc2c2ccccc2[n+]1C.O=S(=O)([O-])O.O=S(=O)([O-])O
- Activity (Caco-2 [8]): Active
- inhibition at 100 µM (MIA PaCa-2 [10]): 35%
- Activity (MIA PaCa-2 [13]): Active
- Activity (MIA PaCa-2 [27]): Dose-dependent effect
- Activity (Caco-2 [30]): inactive
- Activity (HEp-2): Active
